Activity calls are given as the source filed them.
Key:
[1] = target: Prothrombin (Homo sapiens, UniProt P00734); experiment: Thrombin 1536 HTS Dose Response Confirmation. [Related pubchem assays: 1046 (Thrombin 1536 HTS; hits were confirmed in this assay)]; format: functional
[2] = target: Voltage-dependent T-type calcium channel subunit alpha-1H (Homo sapiens, UniProt O95180); format: functional;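 also: channel activity triggered by adding a high calcium stimulation buffer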
[3] = A549 cell cytotoxicity, dose response, cytotoxicity control, plate reader, cherry-pick, antagonist series (AID 743412); format: functional, cell-based
[4] = target: Genome polyprotein (dengue virus type 2, UniProt P29990); experiment: Dengue-2 NS5 methyltransferase inhibitors, primary screen, biochemical, confirmation dose response (AID 588689); format: functional
[5] = target: T1, RNA-binding protein pos-1 (Caenorhabditis elegans, UniProt G5EF15); experiment: inhibitors of POS-1/mex-3 RNA binding, dose response, biochemical, fluorescence polarization (AID 1964);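 also: purified POS-1 fused to maltose binding protein made in E. coli; potency of compounds blocking POS-1 binding to fluorescent RNA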
T1 sequence (G5EF15 whole entry): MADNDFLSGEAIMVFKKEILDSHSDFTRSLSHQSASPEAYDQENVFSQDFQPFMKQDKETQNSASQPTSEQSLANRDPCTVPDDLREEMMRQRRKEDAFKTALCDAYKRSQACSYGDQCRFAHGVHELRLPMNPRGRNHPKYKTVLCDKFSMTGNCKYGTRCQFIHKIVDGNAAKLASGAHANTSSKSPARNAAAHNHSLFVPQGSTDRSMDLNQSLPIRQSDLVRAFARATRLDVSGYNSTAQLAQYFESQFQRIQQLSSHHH

[6] = target: T2, Zinc finger protein mex-5 (Caenorhabditis elegans, UniProt Q9XUB2); experiment: MEX-5/TCR-2 RNA interaction inhibitors, dose response, biochemical, C. elegans, fluorescence polarization (AID 1960)
T2 sequence (Q9XUB2 whole entry): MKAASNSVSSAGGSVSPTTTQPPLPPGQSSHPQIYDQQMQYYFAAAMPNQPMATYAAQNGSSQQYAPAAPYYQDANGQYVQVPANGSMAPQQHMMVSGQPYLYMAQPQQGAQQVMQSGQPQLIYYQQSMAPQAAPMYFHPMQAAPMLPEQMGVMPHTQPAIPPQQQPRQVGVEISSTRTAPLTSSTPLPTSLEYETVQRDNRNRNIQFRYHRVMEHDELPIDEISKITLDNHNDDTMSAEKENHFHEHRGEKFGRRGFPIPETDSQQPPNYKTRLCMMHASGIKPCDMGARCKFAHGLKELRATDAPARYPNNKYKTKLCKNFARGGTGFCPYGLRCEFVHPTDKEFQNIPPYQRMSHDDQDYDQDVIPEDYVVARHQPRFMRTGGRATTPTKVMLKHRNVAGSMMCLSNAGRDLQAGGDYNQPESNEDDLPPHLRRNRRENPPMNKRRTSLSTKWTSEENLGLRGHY

[7] = tested on: HeLa; experiment: HeLa cell cytotoxicity, dose response, cytotoxicity control for MITF activator project, CellTiter-Glo luminescence, cherry-pick samples (AID 540259); format: functional, cell-based; details: Homo sapiens
[8] = target: T3, Voltage-gated N-type calcium channel alpha-1B subunit/Amyloid beta A4 precursor protein-binding family A member 1 (Homo sapiens, UniProt Q00975+Q02410); format: protein assay
T3 sequence (Q00975 whole entry): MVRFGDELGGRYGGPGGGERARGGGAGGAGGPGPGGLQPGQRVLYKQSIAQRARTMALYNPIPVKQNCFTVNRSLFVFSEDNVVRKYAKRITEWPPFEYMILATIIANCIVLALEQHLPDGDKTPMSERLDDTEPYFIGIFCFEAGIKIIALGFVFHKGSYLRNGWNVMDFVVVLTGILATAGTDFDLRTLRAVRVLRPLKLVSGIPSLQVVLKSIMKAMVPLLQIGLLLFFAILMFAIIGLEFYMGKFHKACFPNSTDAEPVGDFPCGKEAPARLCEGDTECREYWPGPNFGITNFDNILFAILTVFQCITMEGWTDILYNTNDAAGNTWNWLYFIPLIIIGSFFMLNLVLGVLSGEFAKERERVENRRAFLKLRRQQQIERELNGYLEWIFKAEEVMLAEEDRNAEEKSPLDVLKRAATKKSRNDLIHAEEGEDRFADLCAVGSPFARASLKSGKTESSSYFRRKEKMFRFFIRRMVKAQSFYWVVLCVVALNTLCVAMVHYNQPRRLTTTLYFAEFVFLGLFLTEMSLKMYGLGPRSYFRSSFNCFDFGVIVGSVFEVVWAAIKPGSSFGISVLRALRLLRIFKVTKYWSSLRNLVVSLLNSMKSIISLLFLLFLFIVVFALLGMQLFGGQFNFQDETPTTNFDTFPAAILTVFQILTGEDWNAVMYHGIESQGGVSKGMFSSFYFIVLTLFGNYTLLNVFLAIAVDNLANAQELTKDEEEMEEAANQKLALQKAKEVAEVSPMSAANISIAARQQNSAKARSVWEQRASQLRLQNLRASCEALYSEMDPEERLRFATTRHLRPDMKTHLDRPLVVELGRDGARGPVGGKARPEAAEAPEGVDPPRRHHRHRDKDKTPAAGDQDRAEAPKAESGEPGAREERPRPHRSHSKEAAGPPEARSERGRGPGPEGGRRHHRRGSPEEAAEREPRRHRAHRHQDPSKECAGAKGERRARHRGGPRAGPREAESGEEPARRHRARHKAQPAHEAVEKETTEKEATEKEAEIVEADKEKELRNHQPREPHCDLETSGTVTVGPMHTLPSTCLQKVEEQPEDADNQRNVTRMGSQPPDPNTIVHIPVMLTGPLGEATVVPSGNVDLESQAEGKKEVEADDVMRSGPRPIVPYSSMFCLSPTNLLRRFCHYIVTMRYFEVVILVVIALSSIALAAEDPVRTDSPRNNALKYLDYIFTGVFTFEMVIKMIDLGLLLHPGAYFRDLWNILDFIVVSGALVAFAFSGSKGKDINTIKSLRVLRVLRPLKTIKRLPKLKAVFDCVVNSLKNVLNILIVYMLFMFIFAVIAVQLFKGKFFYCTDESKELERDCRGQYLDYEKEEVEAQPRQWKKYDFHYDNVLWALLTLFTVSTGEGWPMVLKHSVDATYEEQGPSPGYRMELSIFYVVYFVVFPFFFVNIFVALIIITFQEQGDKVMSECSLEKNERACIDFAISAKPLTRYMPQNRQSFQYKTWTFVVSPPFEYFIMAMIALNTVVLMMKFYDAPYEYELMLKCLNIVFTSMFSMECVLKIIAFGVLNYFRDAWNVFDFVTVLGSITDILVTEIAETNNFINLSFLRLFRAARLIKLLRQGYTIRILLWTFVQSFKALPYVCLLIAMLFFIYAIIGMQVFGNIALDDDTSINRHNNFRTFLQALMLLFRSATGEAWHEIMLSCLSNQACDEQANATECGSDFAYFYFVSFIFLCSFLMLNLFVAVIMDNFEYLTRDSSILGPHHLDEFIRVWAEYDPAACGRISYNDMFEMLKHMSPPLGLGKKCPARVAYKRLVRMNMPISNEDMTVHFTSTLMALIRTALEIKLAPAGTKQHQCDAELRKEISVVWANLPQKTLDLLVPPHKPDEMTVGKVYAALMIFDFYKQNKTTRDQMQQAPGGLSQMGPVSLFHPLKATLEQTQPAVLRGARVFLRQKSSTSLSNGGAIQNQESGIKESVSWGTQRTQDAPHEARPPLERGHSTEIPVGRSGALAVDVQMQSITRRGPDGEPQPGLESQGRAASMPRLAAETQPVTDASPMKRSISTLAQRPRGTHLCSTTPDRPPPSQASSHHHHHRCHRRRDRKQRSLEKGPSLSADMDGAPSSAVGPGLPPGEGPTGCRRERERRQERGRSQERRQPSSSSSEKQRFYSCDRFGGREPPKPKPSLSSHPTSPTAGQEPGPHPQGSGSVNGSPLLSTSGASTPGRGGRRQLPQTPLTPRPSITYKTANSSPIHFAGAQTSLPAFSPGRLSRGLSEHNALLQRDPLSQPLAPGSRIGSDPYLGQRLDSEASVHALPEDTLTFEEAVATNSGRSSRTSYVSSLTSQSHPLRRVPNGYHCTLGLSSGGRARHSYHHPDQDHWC
T3 sequence (Q02410 whole entry): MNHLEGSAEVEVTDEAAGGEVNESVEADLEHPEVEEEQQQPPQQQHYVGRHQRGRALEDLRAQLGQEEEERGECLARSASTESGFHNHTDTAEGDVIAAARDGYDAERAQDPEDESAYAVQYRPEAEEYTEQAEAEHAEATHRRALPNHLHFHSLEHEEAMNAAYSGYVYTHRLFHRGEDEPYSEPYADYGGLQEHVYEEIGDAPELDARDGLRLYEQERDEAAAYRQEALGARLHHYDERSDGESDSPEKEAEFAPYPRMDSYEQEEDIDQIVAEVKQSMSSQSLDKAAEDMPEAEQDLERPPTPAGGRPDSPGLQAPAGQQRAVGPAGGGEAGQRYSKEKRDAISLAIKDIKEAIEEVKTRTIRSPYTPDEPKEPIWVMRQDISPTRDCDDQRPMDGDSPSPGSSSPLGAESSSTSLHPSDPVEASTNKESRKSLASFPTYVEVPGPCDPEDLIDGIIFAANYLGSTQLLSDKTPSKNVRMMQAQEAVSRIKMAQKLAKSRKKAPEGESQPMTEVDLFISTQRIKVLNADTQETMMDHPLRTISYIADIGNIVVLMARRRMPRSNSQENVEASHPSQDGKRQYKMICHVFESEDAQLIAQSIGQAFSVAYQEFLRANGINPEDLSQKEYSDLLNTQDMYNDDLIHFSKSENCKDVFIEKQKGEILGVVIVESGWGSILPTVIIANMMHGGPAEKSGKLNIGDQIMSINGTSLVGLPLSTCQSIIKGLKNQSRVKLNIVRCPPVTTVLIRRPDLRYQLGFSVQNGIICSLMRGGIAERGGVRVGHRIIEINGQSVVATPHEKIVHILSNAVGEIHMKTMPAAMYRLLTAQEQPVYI

[9] = target: T3, Voltage-gated N-type calcium channel alpha-1B subunit/Amyloid beta A4 precursor protein-binding family A member 1; format: protein assay; remark: listed apart in the source
[10] = Luminescence Cell-Based Dose Confirmation HTS to Identify Activators of 5'UTR Stem-Loop Driven Alpha-Synuclein mRNA Translation in H4 Neuroglioblastoma Cells. [Related pubchem assays: 1829 (Project Summary), 1814 (Primary HTS)]; format: functional
[11] = Luminescence Cell-Based Dose Response HTS to Identify Activators of Luciferase Translation or Activity in H4 […] Cells. [Related pubchem assays: 1829 (Project Summary), 1814 (Primary HTS)]; format: functional
[12] = tested on: H4; experiment: Luminescence Cell-Based Dose Response HTS to Identify Activators of 5'UTR Stem-Loop Driven Prion Protein mRNA Translation in H4 Neuroglioblastoma Cells. [Related pubchem assays: 1829 (Project Summary), 1814 (Primary HTS)]; format: functional; details: Homo sapiens
[13] = target: T4, Polyadenylate-binding protein 1 (Homo sapiens, UniProt P11940); experiment: PABP1 MLLE–PAM2 binding inhibitor potency, dose response, biochemical, fluorescence polarization, FITC-PAM2 peptide (AID 602259); format: functional; details: read-out: IC50_Mean
T4 sequence (P11940 whole entry): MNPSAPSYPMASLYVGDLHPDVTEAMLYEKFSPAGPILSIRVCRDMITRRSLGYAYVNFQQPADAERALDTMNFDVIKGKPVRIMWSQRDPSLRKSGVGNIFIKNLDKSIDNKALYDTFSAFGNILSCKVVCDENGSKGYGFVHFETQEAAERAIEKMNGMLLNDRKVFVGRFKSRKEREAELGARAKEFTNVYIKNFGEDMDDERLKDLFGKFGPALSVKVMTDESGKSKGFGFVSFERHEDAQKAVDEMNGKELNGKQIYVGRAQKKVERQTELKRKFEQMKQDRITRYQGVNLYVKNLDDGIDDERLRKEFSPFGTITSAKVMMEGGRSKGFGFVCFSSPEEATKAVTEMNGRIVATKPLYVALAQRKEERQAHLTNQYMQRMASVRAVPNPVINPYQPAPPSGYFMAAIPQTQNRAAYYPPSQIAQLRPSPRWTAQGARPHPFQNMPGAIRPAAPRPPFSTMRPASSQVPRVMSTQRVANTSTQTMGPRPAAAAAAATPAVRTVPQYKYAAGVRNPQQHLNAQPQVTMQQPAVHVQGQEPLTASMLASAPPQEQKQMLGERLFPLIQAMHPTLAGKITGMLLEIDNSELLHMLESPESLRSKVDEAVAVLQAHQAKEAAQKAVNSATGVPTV

[14] = target: T4, Polyadenylate-binding protein 1; experiment: PABP1 MLLE–PAM2 interaction inhibitors, dose response, miRNA deadenylation inhibitor project, biochemical, fluorescence polarization, Cy5-PAM2 peptide, secondary (AID 602260); format: functional; details: read-out: IC50_Mean
[15] = human group III sPLA2 inhibitors, dose response, biochemical, QFRET, IC50 (AID 743457);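 also: green fluorescence rise as the enzyme cleaves BODIPY PC-A2 in liposomes; potency for inhibition of the enzyme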
[16] = target: T5, Corticotropin-releasing factor receptor 2/Corticotropin-releasing factor-binding protein (Homo sapiens, UniProt P24387+Q13324); experiment: activators of CRF receptor 2 with binding protein – uHTS hits, confirmation (AID 602473); format: functional; details: read-out: EC50_Mean
T5 sequence (Q13324 whole entry): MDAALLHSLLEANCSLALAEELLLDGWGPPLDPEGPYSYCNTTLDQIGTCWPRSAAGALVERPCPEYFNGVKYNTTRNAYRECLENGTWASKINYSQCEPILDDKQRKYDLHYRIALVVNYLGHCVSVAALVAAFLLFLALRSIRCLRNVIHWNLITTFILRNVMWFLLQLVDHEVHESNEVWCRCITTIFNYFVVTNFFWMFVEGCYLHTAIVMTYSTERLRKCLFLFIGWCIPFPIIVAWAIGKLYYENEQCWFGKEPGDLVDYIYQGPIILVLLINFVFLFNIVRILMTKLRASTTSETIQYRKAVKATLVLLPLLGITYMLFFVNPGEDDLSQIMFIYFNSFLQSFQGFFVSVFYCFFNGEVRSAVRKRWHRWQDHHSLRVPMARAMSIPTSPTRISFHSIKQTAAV
T5 sequence (P24387 whole entry): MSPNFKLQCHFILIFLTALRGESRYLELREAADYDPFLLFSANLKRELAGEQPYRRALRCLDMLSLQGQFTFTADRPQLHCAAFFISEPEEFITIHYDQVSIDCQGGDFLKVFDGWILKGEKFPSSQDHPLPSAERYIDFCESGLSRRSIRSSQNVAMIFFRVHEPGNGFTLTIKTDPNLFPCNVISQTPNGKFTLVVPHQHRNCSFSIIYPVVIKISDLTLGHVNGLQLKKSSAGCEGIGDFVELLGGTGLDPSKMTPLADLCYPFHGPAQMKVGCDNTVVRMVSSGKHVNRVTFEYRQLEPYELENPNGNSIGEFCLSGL

[17] = target: T6, Coagulation factor XII (Homo sapiens, UniProt P00748); format: functional;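 also: activated factor XIIa alpha cleaving a fluorogenic AMC peptide substrate; inhibitor potency from loss of enzyme activity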
T6 sequence (P00748 whole entry): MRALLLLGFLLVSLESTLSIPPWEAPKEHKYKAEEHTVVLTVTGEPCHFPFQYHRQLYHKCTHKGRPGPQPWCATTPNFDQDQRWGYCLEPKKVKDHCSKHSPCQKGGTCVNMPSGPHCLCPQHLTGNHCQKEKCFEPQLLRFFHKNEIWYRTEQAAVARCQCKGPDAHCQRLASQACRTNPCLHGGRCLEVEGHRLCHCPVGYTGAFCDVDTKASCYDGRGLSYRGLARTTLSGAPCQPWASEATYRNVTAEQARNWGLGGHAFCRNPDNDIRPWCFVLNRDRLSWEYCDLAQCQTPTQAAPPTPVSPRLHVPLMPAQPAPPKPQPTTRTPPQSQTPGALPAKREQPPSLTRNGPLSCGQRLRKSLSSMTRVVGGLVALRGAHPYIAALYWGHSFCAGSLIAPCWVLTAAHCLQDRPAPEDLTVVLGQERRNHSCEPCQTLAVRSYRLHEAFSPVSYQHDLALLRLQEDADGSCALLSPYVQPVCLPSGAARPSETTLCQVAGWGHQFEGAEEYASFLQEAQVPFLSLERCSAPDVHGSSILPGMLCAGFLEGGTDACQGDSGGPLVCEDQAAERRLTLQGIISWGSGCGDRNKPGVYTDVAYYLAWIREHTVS

[18] = target: Cytochrome P450 3A4 (Homo sapiens, UniProt P08684); details: Potency;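 also: confirmatory qHTS run detecting inhibitors and substrates of CYP3A4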
Chain of Cytochrome P450 3A4 (P08684 whole entry): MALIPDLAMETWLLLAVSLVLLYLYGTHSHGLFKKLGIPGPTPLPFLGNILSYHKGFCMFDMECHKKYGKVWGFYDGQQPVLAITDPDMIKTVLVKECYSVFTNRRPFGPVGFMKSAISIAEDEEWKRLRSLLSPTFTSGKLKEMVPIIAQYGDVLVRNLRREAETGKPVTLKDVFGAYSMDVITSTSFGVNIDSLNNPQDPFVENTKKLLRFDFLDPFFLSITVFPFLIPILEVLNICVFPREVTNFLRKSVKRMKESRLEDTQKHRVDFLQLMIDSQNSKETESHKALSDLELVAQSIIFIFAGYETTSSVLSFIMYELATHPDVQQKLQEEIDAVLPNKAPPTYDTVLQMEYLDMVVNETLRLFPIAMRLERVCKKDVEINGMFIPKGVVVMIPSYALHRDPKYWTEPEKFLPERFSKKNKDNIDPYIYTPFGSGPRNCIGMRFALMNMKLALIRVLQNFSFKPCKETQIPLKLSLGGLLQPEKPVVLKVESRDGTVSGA

[19] = IGROV1 ovarian cancer cell cytotoxicity, dose response, PAX8 inhibitor project, plate reader, dry powder samples (AID 743043); format: functional, cell-based; details: IGROV-1
[20] = target: Paired box protein Pax-8 (Homo sapiens, UniProt Q06710); experiment: inhibitors of PAX8-driven TPO luciferase reporter, dose response, RMG-I cells, cherry-pick (AID 687027); format: functional, cell-based;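 also: luciferase reporter driven by Pax8 target thyroperoxidase promoter measured by SteadyGlo luminescence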
Chain of Paired box protein Pax-8 (Q06710 whole entry): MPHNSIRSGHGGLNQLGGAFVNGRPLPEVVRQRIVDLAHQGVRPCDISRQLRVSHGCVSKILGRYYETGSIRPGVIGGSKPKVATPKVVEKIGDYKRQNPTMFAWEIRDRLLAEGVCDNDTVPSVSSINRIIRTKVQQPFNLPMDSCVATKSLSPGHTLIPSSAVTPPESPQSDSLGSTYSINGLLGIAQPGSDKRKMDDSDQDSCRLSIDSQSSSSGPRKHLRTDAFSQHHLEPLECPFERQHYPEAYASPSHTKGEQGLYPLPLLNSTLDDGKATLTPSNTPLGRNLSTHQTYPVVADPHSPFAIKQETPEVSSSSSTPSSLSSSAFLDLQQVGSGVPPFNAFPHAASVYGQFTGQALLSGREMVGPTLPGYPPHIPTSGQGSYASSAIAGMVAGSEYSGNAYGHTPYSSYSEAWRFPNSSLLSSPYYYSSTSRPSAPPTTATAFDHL

[21] = cytotoxicity in OVCAR8 ovarian cancer cells, dose response, PAX8 project, cell-based, plate reader, dry powder samples (AID 743197); format: functional; details: OVCAR-8
[22] = target: Cytochrome P450 2C9 (Homo sapiens, UniProt P11712)
[23] = target: T7, Calpain-2 catalytic subunit (Sus scrofa, UniProt P43367); experiment: pig calpain II inhibitor potency, dose response, biochemical, fluorogenic peptide substrate (AID 1420); format: functional
T7 sequence (P43367 whole entry): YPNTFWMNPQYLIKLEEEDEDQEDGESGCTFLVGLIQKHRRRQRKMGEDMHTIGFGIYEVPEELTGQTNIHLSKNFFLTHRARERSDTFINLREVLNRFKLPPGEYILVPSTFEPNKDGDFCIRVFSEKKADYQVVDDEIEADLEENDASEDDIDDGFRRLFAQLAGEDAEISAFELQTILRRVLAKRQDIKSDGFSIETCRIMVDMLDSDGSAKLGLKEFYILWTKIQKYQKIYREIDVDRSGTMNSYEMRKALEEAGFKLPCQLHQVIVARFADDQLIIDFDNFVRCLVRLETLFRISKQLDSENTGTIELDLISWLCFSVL

In the case of `O=C(Cc1cccs1)Nc1nnc(CCc2ccccc2)s1`, the IC50 [1] was 25.4 µM (active).
For `O=C(CSCc1ccc(Cl)cc1)NCc1ccc2c(c1)OCO2`, the EC50 [2] was 4.2 µM (active).
In the case of `COc1ccc2[nH]c3c(c2c1)CCN1C(=O)N([C@@H](C)C(=O)NCc2ccc(C)cc2)C(=O)[C@]31C`, the AC50 [3] was > 52 µM (inactive).
For `CC1=NOC(=O)/C1=C\c1ccc2c(c1)OCO2`, the IC50 [4] was 7.17 µM (active), the EC50 [5] was > 300 µM (not active) and the EC50 [6] was > 300 µM (not active).
For `c1ccn(-c2ccc(-c3cc[nH]n3)cc2)c1`, the AC50 [7] was 90.9 µM (active).
In the case of `O=c1c2ccccc2nc(N2CCN(c3ccccc3)CC2)n1Cc1ccccc1`, the EC50 [2] was 9.51 µM (active).
With `COC(=O)c1ccccc1NC(=O)C1CC(=O)N(c2ccc(F)cc2)C1` (stereo not drawn) the IC50 [1] was > 50 µM (not active).
With `COc1cc(NC(=O)c2ccc(F)cc2)ccc1NC(=O)c1cc2ccccc2o1` the IC50 [8] was > 50 µM (inactive) and the IC50 [9] was 4.02 µM (active).
For `CCCC(=O)n1nc(-c2cccnc2)nc1NCc1ccccc1`, the IC50 [1] was 0.00538 µM (active).
With `O=C(CNc1ccccc1OC(F)F)N1CCc2ccccc21` the EC50 [10] was 0.103 µM (active), the EC50 [11] was 6 µM (active) and the EC50 [12] was 4.45 µM (active). For the same compound, the AC50 [7] was 72.1 µM (active).
In the case of `O=C(NC(=S)NNC(=O)c1ccccc1O)c1ccc([N+](=O)[O-])cc1`, the IC50 [13] was > 66 µM (inactive), the IC50 [14] was > 66 µM (inactive) and the IC50 [15] was > 122 µM (inactive). For the same compound, the EC50 [16] was > 53 µM (inactive).
In the case of `CCc1nc2sc3c(=O)cc(O)[nH]c3c2cc1C`, the IC50 [8] was 24.8 µM (active) and the IC50 [9] was > 56.8 µM (not active).
With `COc1ccc(Cl)cc1NC(=O)c1nnn(CC(=O)Nc2ccc(OC)c(OC)c2)c1N` the IC50 [8] was > 50 µM (inactive) and the IC50 [9] was > 56.8 µM (not active).
With `O=C1c2ccccc2NC(c2cccc(Cl)c2)N1N=C1CCCCCC1` (stereo not drawn) the AC50 [7] was 200 µM (active).
With `CCn1c(C)nc2cc(C(=O)NN=C(S)Nc3ccc(C)cc3)ccc21` the IC50 [17] was > 50 µM (inactive) and the IC50 [1] was > 50 µM (not active).
In the case of `COc1ccc2nc(NC(=O)/C=C/c3ccc4c(c3)OCO4)sc2c1`, the IC50 [8] was 41.5 µM (active) and the IC50 [9] was 19.5 µM (active).
For `C[C@]12CC[C@@H]3c4ccc(OC(=O)c5ccccc5)cc4CC[C@H]3[C@@H]1CCC2=O`, the AC50 [18] was 7.94 µM (inconclusive).
With `Nc1c(Br)cc([N+](=O)[O-])cc1[N+](=O)[O-]` the AC50 [18] was 25.1 µM (inconclusive).
For `C[C@H](CO)N1C[C@H](C)[C@@H](CN(C)Cc2ccc(Oc3ccccc3)cc2)Oc2ccc(NS(=O)(=O)c3ccc(F)cc3)cc2CC1=O`, the AC50 [19] was 40 µM (active), the AC50 [20] was 6.47 µM (active) and the AC50 [21] was 63.3 µM (active).
With `CN(C[C@H]1N[C@@H](CO)[C@@H]1c1ccc(-c2cccc(F)c2)cc1)S(C)(=O)=O` the AC50 [19] was 14.9 µM (active), the AC50 [20] was 10.3 µM (active) and the AC50 [21] was 23.7 µM (active).
For `COc1cc(/C=N/O)ccc1OCc1ccccc1Cl`, the AC50 [7] was 40.7 µM (active).
For `CCOC(=O)C(/C=N/c1cccc(C)c1C)=C(/O)OCC`, the AC50 [22] was “inconclusive”, the IC50 [1] was > 50 µM (not active) and the IC50 [23] was 14 µM (not active).
With `CC1=C(C(=O)OCc2ccccc2)C(c2ccc(C3CCCCC3)cc2)NC(=O)N1CCCCCC(=O)O` (stereo not drawn) the AC50 [18] was 7.94 µM (inconclusive).
With `O=[N+]([O-])c1ccc2c3c(cccc13)CC2` the AC50 [18] was 31.6 µM (inconclusive).

— ChEMBL document CHEMBL1201862, “PubChem BioAssay data set” (2004)
